{"source": "patent US20210121456A1", "about": "“USE OF METHYLNALTREXONE TO ATTENUATE TUMOR PROGRESSION” (Salix Pharmaceuticals, Inc., priority 2014, published 2021)", "tested_on": "subjects with advanced medical illness and opioid-induced constipation", "assay": "Study 1: double-blind, randomized, placebo-controlled study of subcutaneous methylnaltrexone", "assay_type": "in vivo, human", "experimental": "A double-blind, randomized, placebo-controlled study of subcutaneous methylnaltrexone (MNTX) was conducted in subjects with advanced medical illness and a current history of opioid-induced constipation. To satisfy eligibility criteria for enrollment, subjects were required to be on stable doses of laxatives and opioid analgesics. In the context of the study, a stable dose of opioid analgesics was defined as no reduction in the dose of opioid analgesic of ≥50% for at least three days before the first dose of MNTX. A stable dose of laxatives was defined as having a standing laxative order (and not PRN, or as-needed) for at least three days before the first dose of MNTX. A diagnosis of constipation was provided if the subject had fewer than 3 bowel movements during the previous week by history and no clinically notable laxation in the 24 hours before the first dose of MNTX, or no clinical notable laxation in the 48 hours before the first dose of MNTX.\nEligible subjects were randomized to one of two treatment groups: MNTX 0.15 mg/kg (e.g., 8 mg for patients <62 kg body weight and 12 mg for patients ≥62 kg body weight) or placebo. Each treatment was administered every other day (QOD) subcutaneously for two weeks. Injections were administered subcutaneously in either the shoulder area, buttocks, abdomen, thighs or extremities. Rescue-laxatives, enemas or manual disimpactions were not administered within 4 hours before or after each dose of MNTX. Endpoints included: (1) the proportion of subjects with rescue-free laxation within 4 hours of the first dose of study drug, and (2) the proportion of subjects with ≥2 rescue-free laxations within 4 hours post dosing over 4 doses of study drug (the first week of the two-week treatment period). One hundred and thirty-four (134) subjects were enrolled and evaluated, including 78 patients with advanced cancers and 56 patients with other advanced illness, including COPD, cardiovascular disease and severe neurologic disease. Seventy-one (71) of the 134 subjects were randomized to the placebo group, and sixty-two (62) of the 134 subjects were randomized to MNTX treatment group. The co-primary efficacy endpoints of this study were: 1) the proportion of patients with laxation within 4 hours after the first dose of study drug, and 2) the proportion of patients with laxation within 4 hours after 2 of the first 4 doses (the first week of double-blind treatment). The primary endpoint was laxation within 4 hours. Secondary endpoints included the use of rescue medication and frequency of symptoms within 24 hours. […]", "key": {"[1]": {"settings": "MNTX 0.15 mg/kg SC QOD, double-blind"}, "[2]": {"settings": "regardless of the time after dose"}}}
{"smiles": "C[N@+]1(CC2CC2)CC[C@]23c4c5ccc(O)c4O[C@H]2C(=O)CC[C@@]3(O)[C@H]1C5.[Br-]", "note": "[MNTX, (R)—N-(cyclopropylmethyl) noroxymorphone methobromide]", "values": [{"measurement": "subjects with improvement in constipation distress", "setting": "Day 1", "value": 53, "unit": "%"}, {"measurement": "subjects for whom the bowel status was improved (second global rating, 'Likewise')", "setting": "Day 7", "value": 69.4, "unit": "%"}, {"measurement": "subjects who rated their bowel status improved (global rating scale)", "setting": "Day 7", "value": 73.5, "unit": "%"}, {"measurement": "subjects with improvement in constipation distress", "setting": "Day 7", "value": 64, "unit": "%"}, {"measurement": "subjects for whom the bowel status was improved (second global rating, 'Likewise')", "setting": "Day 14", "value": 67.9, "unit": "%"}, {"measurement": "subjects who rated their bowel status improved (global rating scale)", "setting": "Day 14", "value": 67.9, "unit": "%"}, {"measurement": "subjects with improvement in constipation distress", "setting": "Day 14", "value": 60, "unit": "%"}, {"measurement": "subjects with rescue-free laxation within 4 hours after at least 2 of the first 4 doses", "setting": "MNTX 0.15 mg/kg SC QOD", "value": 51.6, "unit": "%"}, {"measurement": "subjects with rescue-free laxation within 4 hours after at least 2 of the first 4 doses (number)", "setting": "MNTX 0.15 mg/kg SC QOD", "value": "Thirty-two"}, {"measurement": "subjects with rescue-free laxation within 4 hours after at least 4 of the maximum 7 doses", "setting": "MNTX 0.15 mg/kg SC QOD", "value": 38.7, "unit": "%"}, {"measurement": "subjects with rescue-free laxation within 4 hours after at least 4 of the maximum 7 doses (number)", "setting": "MNTX 0.15 mg/kg SC QOD", "value": "twenty-four"}, {"measurement": "subjects with rescue-free laxation within 4 hours after the first dose", "setting": "[1]", "value": 48.4, "unit": "%"}, {"measurement": "subjects with rescue-free laxation within 4 hours after the first dose (number)", "setting": "[1]", "value": 30, "unit": "subjects"}, {"measurement": "median time to rescue-free laxation after the first dose", "setting": "based on the subjects who had laxation", "value": 1.0, "unit": "h"}, {"measurement": "subjects using enemas", "setting": "during double-blind treatment (baseline 12.7%)", "value": 23.8, "unit": "%"}, {"measurement": "subjects using osmotic agents", "setting": "during the study (baseline 30.2%)", "value": 33.3, "unit": "%"}, {"measurement": "subjects with at least one rescue-free laxation", "setting": "first week of treatment", "value": 95.2, "unit": "%"}, {"measurement": "rescue-free laxations within 4 hours after any dose rated as moderate, considerable, or great difficulty", "setting": "in vivo", "value": 33.0, "unit": "%"}, {"measurement": "subjects with rescue-free laxations within 4 hours after any individual dose", "setting": "range over doses", "value": "37.3-48.4%"}, {"measurement": "subjects with rescue-free laxations within 24 hours after any individual dose", "setting": "range over doses", "value": "55.4-66.0%"}, {"measurement": "subjects with at least three rescue-free laxations per week", "setting": "[2]", "value": 67.7, "unit": "%"}, {"measurement": "subjects with at least three rescue-free laxations per week (number)", "setting": "[2]", "value": 42, "unit": "subjects"}, {"measurement": "watery bowel movements", "setting": "rescue-free laxations within 4 hours after any dose", "value": 15.9, "unit": "%"}, {"measurement": "subjects with at least one rescue-free laxation", "setting": "second week of treatment", "value": 91.2, "unit": "%"}]}
